Laboratory results as given in patent publication US8765138B2 (priority 2004, dated 2014).
Converted amounts (≈) assume the structure as drawn.

Legend:
MDCK cell line = assay: cells; format: cell-based; conditions: for Control IC50: ribavirin control, with Flu A H5N1
[1] = tested on: Flu A H3N2 Wisconsin 67/2005; assay: microbe, parasite or virus in culture; format: cell-based; conditions: Influenza A virus, H3N2, MDCK, read-out: Control EC50

For `NC(=O)c1ncn([C@@H]2O[C@H](CO)[C@@H](O)[C@H]2O)n1` [RIBAVARIN, Ribavirin], the IC50 (MDCK cell line; Canis lupus familiaris, MDCK, read-out: Control IC50) was greater than 320 µg/mL, the “Control IC50” value (MDCK cell line; Neutral Red) was greater than 320 µg/mL and the “Control IC50” value (MDCK cell line; Visual) was greater than 320 µg/mL. For the same compound, the EC50 [1] was 1.9 µg/mL (≈ 7.78 µM).
